Results from patent publication US7598279B2, “Neurotherapeutic azole compounds” (SK Holdings Co., Ltd., priority 2005, dated 2009).

Legend:
Format in all cases: in vivo
mice [1] = test: Forced swimming test (FST); conditions: 30 min after dosing
Method: The “Forced swimming test (FST)” for antidepressant activity was also carried out. The procedure employed in the FST for antidepressant is as follows. The compounds to be tested were dissolved in 30% PEG400 and administered ip and po into animals. 30 min later, the immobility time during post 4 minutes of 6 minutes experiment time was measured.

mice [2] = test: Maximal ElectroShock (MES)-induced tonic seizure test; conditions: Mus musculus; for ED50: read-out: Mice MES ED50 (mpk/peak time); for responders at 30 mg/kg: read-out: Mice MES Protection % (mpk/peak time)
Method: The “Maximal ElectroShock (MES)” test is a well-established pharmacological screening method for anticonvulsants against tonic-clonic seizures. The procedure employed in the MES test for anticonvulsants is as follows. The compounds to be tested were dissolved in 30% PEG400 and administered ip and po into animals. After the designated number of hours, maximal electroshock (50 mA, 60 Hz, 0.2 sec) was applied into animals via corneal electrodes using IITC Life Science model 11A Shocker. […] Median efficacy dose (ED50) levels were determined using three different dose levels with at least 8 mice in each group.

mice [3] = test: Pentylenetetrazol (PTZ)-induced clonic seizure test; conditions: Mus musculus; for responders at 30 mg/kg: read-out: Mice PTZ Protection % (mpk/peak time)
Method: The “Pentylenetetrazol (PTZ)” test for anticonvulsant and antianxiety activity was also carried out.
The procedure employed in the PTZ test is as follows. The compounds to be tested were dissolved in 30% PEG400 and administered ip and po into animals. After the designated number of hours, each animal was injected subcutaneously with 100 mg/kg of PTZ (CD97 dose) and observed for up to 30 minutes for the presence or absence of clonic spasms over 5 seconds. Median efficacy dose (ED50) levels were determined using three different dose levels with 8 mice in each group.

[4] = 3 mice, 30 mpk, 0.5, 1, 2, 4 hr

| SMILES | Mice FST Reduction of immobility % (mice [1]; dose not given) [%] | ED50 (mice [2]; 0.5 h) [mg/kg] | other results |
| --- | --- | --- | --- |
| NC(=O)OC(Cn1ncnn1)c1ccc(Cl)cc1 (stereo not shown) [Example 5, Carbamic acid 1-(4-chloro-phenyl)-2-tetrazol-2-yl-ethyl ester] | 71.7 | 18.4 | – |
| NC(=O)OC(Cn1nccn1)c1ccc(Cl)cc1 (stereo not shown) [Example 10, Carbamic acid 1-(4-chloro-phenyl)-2-[1,2,3]triazol-2-yl-ethyl ester] | 45.1 | 21.3 | – |
| NC(=O)OC(Cn1nccn1)c1ccccc1C(F)(F)F (stereo not shown) [Example 39, Carbamic acid 2-[1,2,3]triazol-2-yl-1-(2-trifluoromethyl-phenyl)-ethyl ester] | – | 12.5 | – |
| NC(=O)O[C@@H](Cn1ncnn1)c1ccc(Cl)cc1 [Example 42, Carbamic acid (R)-1-(4-chloro-phenyl)-2-tetrazol-2-yl-ethyl ester] | 44.1 | 18.2 | – |
| NC(=O)O[C@@H](Cn1nccn1)c1ccc(Cl)c(Cl)c1 [Example 91, Carbamic acid (R)-1-(3,4-dichloro-phenyl)-2-[1,2,3]triazol-2-yl-ethyl ester] | 94.0 | 16 | – |
| NC(=O)OC(Cc1ccccc1)Cn1ncnn1 (stereo not shown) [Example 116, Carbamic acid 2-phenyl-1-tetrazol-2-ylmethyl-ethyl ester] | 30.0 | – | responders at 30 mg/kg (mice [3]; 2 h): 33.3%; responders at 30 mg/kg (mice [2]; 1 h): 100% |
| O=C(OC(Cn1ncnn1)c1ccccc1Cl)N1CCC(Cc2ccc(Cl)c(Cl)c2)CC1 (stereo not shown) [Example 175, 4-(3,4-Dichloro-benzyl)-piperidine-1-carboxylic acid 1-(2-chloro-phenyl)-2-tetrazol-2-yl-ethyl ester] | – | 20.2 | Mice FST Reduction of immobility % (mice [1]): N.S; responders at 30 mg/kg (mice [3]; 4 h): 66.7% |
| O=C(OC(Cn1ncnn1)c1ccccc1Cl)N1CCC(CCc2ccccc2)C1 (stereo not shown) [Example 181, 3-Phenethyl-pyrrolidine-1-carboxylic acid 1-(2-chloro-phenyl)-2-tetrazol-2-yl-ethyl ester] | 30.6 | 12.1 | responders at 30 mg/kg (mice [3]; 4 h): 33.3% |
| O=C(OC(Cn1ncnn1)c1cc(Cl)ccc1Cl)N1CCC(Cc2ccc(Cl)c(Cl)c2)CC1 (stereo not shown) [Example 191, 4-(3,4-Dichloro-benzyl)-piperidine-1-carboxylic acid 1-(2,5-dichloro-phenyl)-2-tetrazol-2-yl-ethyl ester] | 50.6 | – | ED50 (mice [3]; sc, read-out: Mice PTZ ED50 (mpk/peak time)): > 30 mg/kg; responders at 30 mg/kg (mice [2]; 4 h): 66.7% |
| O=C(OC(Cn1ncnn1)c1ccc(Cl)cc1Cl)N1CCC(Cc2ccc(Cl)c(Cl)c2)CC1 (stereo not shown) [Example 194, 4-(3,4-Dichloro-benzyl)-piperidine-1-carboxylic acid 1-(2,4-dichloro-phenyl)-2-tetrazol-2-yl-ethyl ester] | 53.4 | 11.9 | responders at 30 mg/kg (mice [3]; 2 h): 33.3% |
| O=C(OC(Cn1ncnn1)c1ccc(Cl)c(Cl)c1)N1CCC(Cc2ccc(Cl)c(Cl)c2)CC1 (stereo not shown) [Example 195, 4-(3,4-Dichloro-benzyl)-piperidine-1-carboxylic acid 1-(3,4-dichloro-phenyl)-2-tetrazol-2-yl-ethyl ester] | 31.9 | – | responders at 30 mg/kg (mice [3]; 3 mice, 30 mpk, 0.5, 1 hr): 33.3%; ED50 (mice [2]; mice, peak time 0.5 hr): 15.3 mg/kg |
| O=C(OC(Cn1ncnn1)c1ccccc1Cl)N1CCC(Cc2ccc(Cl)cc2)C1 (stereo not shown) [Example 196, 3-(4-Chloro-benzyl)-pyrrolidine-1-carboxylic acid 1-(2-chloro-phenyl)-2-tetrazol-2-yl-ethyl ester] | – | 15.3 | Mice FST Reduction of immobility % (mice [1]): N.S; responders at 30 mg/kg (mice [3]; 4 h): 33.3% |
| O=C(OC(Cn1ncnn1)c1ccccc1Cl)N1CCC(Cc2cc(C(F)(F)F)cc(C(F)(F)F)c2)CC1 (stereo not shown) [Example 197, 4-(3,5-Bis-trifluoromethyl-benzyl)-piperidine-1-carboxylic acid 1-(2-chloro-phenyl)-2-tetrazol-2-yl-ethyl ester] | – | 6.3 | Mice FST Reduction of immobility % (mice [1]): N.S; responders at 30 mg/kg (mice [3]; 4 h): 100% |
| O=C(OC(Cn1nccn1)c1ccccc1Cl)N1CCC(Cc2ccc(Cl)c(Cl)c2)CC1 (stereo not shown) [Example 200, 4-(3,4-Dichloro-benzyl)-piperidine-1-carboxylic acid 1-(2-chloro-phenyl)-2-[1,2,3]triazol-2-yl-ethyl ester] | 25.9 | – | responders at 30 mg/kg (mice [2]; 3 mice, 30 mpk, 0.5, 4 hr): 100% |
| O=C(OC(Cn1cnnn1)c1ccccc1Cl)N1CCC(Cc2ccc(Cl)c(Cl)c2)CC1 (stereo not shown) [Example 201, 4-(3,4-Dichloro-benzyl)-piperidine-1-carboxylic acid 1-(2-chloro-phenyl)-2-tetrazol-1-yl-ethyl ester] | 54.0 | – | responders at 30 mg/kg (mice [2]; 3 mice, 30 mpk, 1, 2, 4 hr): 100% |
| O=C(OC(Cn1ncnn1)c1cc(Cl)ccc1Cl)N1CCC(CCc2ccccc2)C1 (stereo not shown) [Example 202, 3-Phenethyl-pyrrolidine-1-carboxylic acid 1-(2,5-dichloro-phenyl)-2-tetrazol-2-yl-ethyl ester] | 81.2 | – | responders at 30 mg/kg (mice [3]; 3 mice, 30 mpk, 1, 4 hr): 33.3%; ED50 (mice [2]; mice, peak time 0.5 hr): 11.4 mg/kg |
| O=C(OC(Cn1ncnn1)c1ccc(Cl)cc1Cl)N1CCC(CCc2ccccc2)C1 (stereo not shown) [Example 203, 3-Phenethyl-pyrrolidine-1-carboxylic acid 1-(2,4-dichloro-phenyl)-2-tetrazol-2-yl-ethyl ester] | 44.0 | – | responders at 30 mg/kg (mice [2]; [4]): 100% |
| O=C(OC(Cn1ncnn1)c1ccc(Cl)c(Cl)c1)N1CCC(CCc2ccccc2)C1 (stereo not shown) [Example 204, 3-Phenethyl-pyrrolidine-1-carboxylic acid 1-(3,4-dichloro-phenyl)-2-tetrazol-2-yl-ethyl ester] | 51.2 | – | responders at 30 mg/kg (mice [2]; 3 mice, 30 mpk, 0.5, 1, 2 hr): 100% |
| O=C(OC(COc1ccc(Cl)cc1Cl)Cn1nccn1)N1CCC(CCc2ccccc2)C1 (stereo not shown) [Example 206, 3-Phenethyl-pyrrolidine-1-carboxylic acid 2-(2,4-dichloro-phenoxy)-1-[1,2,3]triazol-2-ylmethyl-ethyl ester] | 51.4 | – | responders at 30 mg/kg (mice [3]; 3 mice, 30 mpk, 2, 4 hr): 66.7%; responders at 30 mg/kg (mice [2]; [4]): 100% |
| O=C(OC(COc1ccc(Cl)c(Cl)c1)Cn1nccn1)N1CCC(CCc2ccccc2)C1 (stereo not shown) [Example 207, 3-Phenethyl-pyrrolidine-1-carboxylic acid 2-(3,4-dichloro-phenoxy)-1-[1,2,3]triazol-2-ylmethyl-ethyl ester] | 43.4 | – | responders at 30 mg/kg (mice [2]; 3 mice, 30 mpk, 0.5, 1, 4 hr): 100% |
| O=C(OC(COc1cc(Cl)ccc1Cl)Cn1ncnn1)N1CCC(CCc2ccccc2)C1 (stereo not shown) [Example 208, 3-Phenethyl-pyrrolidine-1-carboxylic acid 2-(2,5-dichloro-phenoxy)-1-tetrazol-2-ylmethyl-ethyl ester] | 48.2 | – | responders at 30 mg/kg (mice [3]; 3 mice, 30 mpk, 4 hr): 33.3%; responders at 30 mg/kg (mice [2]; 3 mice, 30 mpk, 0.5, 1, 4 hr): 100% |
